Measured values reported in patent US20100063026A1, “ANTIBACTERIAL QUINOLINE DERIVATIVES” (priority 2007, published 2010).
Values after ≈ are worked out from the molar mass of the structure shown.

Tests used:
[1] = test system: Staphylococcus aureus (ATCC29213); test: Microtitre plate IC90 determination against non-mycobacterial strains: S. aureus; assay type: cell-based; settings: 90% inhibitory concentration for bacterial growth, 37° C., resazurin fluorescence; for IC90 STA 1 B29213: 24 hours; for IC90: Staphylococcus aureus, ATCC29213, 24 h, read-out: IC90 STA 1 B29213
Description: (§1) The bacteria used in this study were grown overnight in flasks containing 100 ml Mueller-Hinton Broth (Becton Dickinson-cat. no. 275730) in sterile de-ionized water, with shaking, at 37° C. Stocks (0.5 ml/tube) were stored at -70° C. until use. Bacteria titrations were performed in microtiter plates to detect the TCID50, in which the TCID50 represents the dilution that gives rise to bacterial growth in 50% of inoculated cultures. In general, an inoculum level of approximately 100 TCID50 was used for susceptibility testing. […] Therefore resazurin (0.6 mg/ml) was added in a volume of 20 μl to all wells 3 hours after inoculation, and the plates were re-incubated overnight. A change in colour from blue to pink indicated the growth of bacteria.

[2] = test system: Streptococcus pneumoniae (ATCC6305); test: Microtitre plate IC90 determination against non-mycobacterial strains: S. pneumoniae; assay type: cell-based; settings: 90% inhibitory concentration for bacterial growth, 37° C., resazurin fluorescence; for IC90 SPN 1 6305: 24 hours; for IC90: Streptococcus pneumoniae, ATCC6305, 24 h, read-out: IC90 SPN 1 6305
Description: as §1

M. smegmatis ATCC607 = test: In-vitro anti-bacterial activity against strain M. smegmatis ATCC607; settings: for IC90 MSM 1 ATCC607: 90% inhibitory concentration for bacterial growth, 48 hours, 37° C., Alamar Blue fluorescence; for IC90: Mycolicibacterium smegmatis, ATCC607, 48 h, read-out: IC90 MSM 1 ATCC607, 90% inhibitory concentration for bacterial growth, 37° C., Alamar Blue fluorescence
Description: Flat-bottom, sterile 96-well plastic microtiter plates were filled with 180 μl of sterile deionized water, supplemented with 0.25% BSA. Subsequently, stock solutions (7.8× final test concentration) of compounds were added in 45 μl volumes to a series of duplicate wells in column 2 so as to allow evaluation of their effects on bacterial growth. Serial five-fold dilutions (45 μl in 180 μl) were made directly in the microtiter plates from column 2 to 11 using a customised robot system (Zymark Corp., Hopkinton, Mass.). Pipette tips were changed after every 3 dilutions to minimize pipetting errors with high hydrophobic compounds. Untreated control samples with (column 1) and without (column 12) inoculum were included in each microtiter plate. Approximately 250 CFU per well of bacteria inoculum, in a volume of 100 μl in 2.8× Mueller-Hinton broth medium, was added to the rows A to H, except column 12. The same volume of broth medium without inoculum was added to column 12 in row A to H. The cultures were incubated at 37° C. for 48 hours in a humidified 5% CO2 atmosphere (incubator with open air valve and continuous ventilation). At the end of incubation, two days after inoculation, the bacterial growth was quantitated fluorometrically. Therefore Alamar Blue (10×) was added to all wells in a volume of 20 μl and plates were incubated for another 2 hours at 50° C.
The fluorescence was read in a computer-controlled fluorometer (Cytofluor, Biosearch) at an excitation wavelength of 530 nm and an emission wavelength of 590 nm (gain 30). The percentage growth inhibition achieved by the compounds was calculated according to standard methods and expressed as IC90 (μg/ml) which defines the 90% inhibitory concentration for bacterial growth.

| SMILES | IC90 STA 1 B29213 [1] [µg/mL] | IC90 SPN 1 6305 [2] [µg/mL] | melting point [°C] | IC90 MSM 1 ATCC607 (M. smegmatis ATCC607) [µg/mL] | IC90 (M. smegmatis ATCC607) [µg/mL] | IC90 [1] [µg/mL] | IC90 [2] [µg/mL] |
| --- | --- | --- | --- | --- | --- | --- | --- |
| COc1nc2ccc(Br)cc2cc1C(c1ccccc1)C(O)(CCCCN1CC2CC1CN2CCc1ccccc1)c1ccc2ccccc2c1 (single isomer, unassigned) [Compound 25] | 2.3 (≈ 3.1 µM) | 0.5 (≈ 0.675 µM) | 137 | 1.7 (≈ 2.29 µM) | – | – | – |
| COc1nc2ccc(Br)cc2cc1C(c1ccccc1)C(O)(CCCCN1CCCN(C)CC1)c1ccc2ccccc2c1 (centres unmarked) [Compound 35a] | 2.1 (≈ 3.22 µM) | 0.4 (≈ 0.613 µM) | – | 0.9 (≈ 1.38 µM) | – | – | – |
| COc1nc2ccc(Br)cc2cc1C(c1ccccc1)C(O)(CCCCN1CCC(N2CCCCC2)CC1)c1ccc2ccccc2c1 (single isomer, unassigned) [Compound 28] | 2.2 (≈ 3.11 µM) | 2.8 (≈ 3.96 µM) | – | – | 2.5 (≈ 3.54 µM) | – | – |
| COc1nc2ccc(Br)cc2cc1C(c1ccccc1)C(O)(CCCCN1CCCN(C)CC1)c1ccc2ccccc2c1 (centres unmarked) [Compound 34d] | 2.1 (≈ 3.22 µM) | 0.4 (≈ 0.613 µM) | – | 2.1 (≈ 3.22 µM) | – | – | – |
| COc1nc2ccc(Br)cc2cc1C(c1ccccc1)C(O)(CCCCN1CCCN(C)CC1)c1ccc2ccccc2c1 (centres unmarked) [Compound 34b] | – | 2.1 (≈ 3.22 µM) | – | 2.1 (≈ 3.22 µM) | – | 2.1 (≈ 3.22 µM) | – |
| COc1nc2ccc(Br)cc2cc1C(c1ccccc1)C(O)(CCCCN1CC2CC1CN2CCc1ccccc1)c1ccc2ccccc2c1 (single isomer, unassigned) [Compound 24] | 11.7 (≈ 15.8 µM) | 2.1 (≈ 2.83 µM) | – | – | 2.3 (≈ 3.1 µM) | – | – |
| COc1nc2ccc(Br)cc2cc1C(c1ccccc1)C(O)(CCCCN1CCN(C2CCN(Cc3ccccc3)C2)CC1)c1ccc2ccccc2c1 (single isomer, unassigned) [Compound 32] | 2.5 (≈ 3.19 µM) | 2.5 (≈ 3.19 µM) | – | 5.6 (≈ 7.14 µM) | – | – | – |
| COc1nc2ccc(Br)cc2cc1C(c1ccccc1)C(O)(CCCCN(C)C1CCN(C)CC1)c1ccccc1 (single isomer, unassigned) [Compound 4] | – | – | – | – | 2 (≈ 3.24 µM) | 9.8 (≈ 15.9 µM) | 2 (≈ 3.24 µM) |
| COc1nc2ccc(Br)cc2cc1C(c1ccccc1)C(O)(CCCCN1CC2CC1CN2Cc1ccccc1)CCc1ccccc1 (single isomer, unassigned) [Compound 12] | 11.2 (≈ 15.9 µM) | – | – | 2.2 (≈ 3.12 µM) | – | – | 2.2 (≈ 3.12 µM) |
| CN1CCCN(CCCCC(O)(c2ccc3ccccc3c2)C(c2ccccc2)c2cc3cc(Br)ccc3[nH]c2=O)CC1 (single isomer, unassigned) [Compound 50] | 10.1 (≈ 15.8 µM) | – | 210 | 2.3 (≈ 3.6 µM) | – | – | 4.5 (≈ 7.05 µM) |
| COc1nc2ccc(Br)cc2cc1C(c1ccccc1)C(O)(CCCCN(C)CCN(C)C)c1ccccc1 (single isomer, unassigned) [Compound 51] | – | – | – | – | 9.4 (≈ 15.9 µM) | 9.4 (≈ 15.9 µM) | 9.4 (≈ 15.9 µM) |
| COc1nc2ccc(Br)cc2cc1C(c1ccccc1)C(O)(CCCCN1CCN(C2CCN(Cc3ccccc3)C2)CC1)c1ccc2ccccc2c1 (single isomer, unassigned) [Compound 30b] | 62 (≈ 79.1 µM) | 31 (≈ 39.5 µM) | – | 31 (≈ 39.5 µM) | – | – | – |
| COc1nc2ccc(Br)cc2cc1C(c1ccccc1)C(O)(CCCCN(C)C1CCN(C)CC1)c1ccccc1 (single isomer, unassigned) [Compound 5] | 7.8 (≈ 12.6 µM) | 2.0 (≈ 3.24 µM) | – | 2.0 (≈ 3.24 µM) | – | – | – |
| COc1nc2ccc(Br)cc2cc1C(c1ccccc1)C(O)(CCCCN1CCCNCC1)c1ccc2ccccc2c1 (single isomer, unassigned) [Compound 33] | – | – | 119 | – | 0.4 (≈ 0.626 µM) | 2 (≈ 3.13 µM) | 0.5 (≈ 0.783 µM) |
| COc1nc2ccc(Br)cc2cc1C(c1ccccc1)C(O)(CCCCN1CCC(N2CCCCC2)CC1)CCc1ccccc1 (single isomer, unassigned) [Compound 10] | 2.2 (≈ 3.21 µM) | 2.2 (≈ 3.21 µM) | – | 2.4 (≈ 3.5 µM) | – | – | – |
| COc1nc2ccc(Br)cc2cc1C(c1ccccc1)C(O)(CCCCN1CC2CC1CN2CC(C)C)c1ccc2ccccc2c1 (centres unmarked) [Compound 52] | – | – | – | – | 2.2 (≈ 3.18 µM) | 2.2 (≈ 3.18 µM) | 0.5 (≈ 0.722 µM) |
| COc1nc2ccc(Br)cc2cc1C(c1ccccc1)C(O)(CCCCN1CCC(N2CCCCC2)CC1)CCc1ccccc1 (single isomer, unassigned) [Compound 11] | 10.9 (≈ 15.9 µM) | 10.9 (≈ 15.9 µM) | 164 | 12.2 (≈ 17.8 µM) | – | – | – |
| COc1nc2ccc(Br)cc2cc1C(c1ccccc1)C(O)(CCCCc1ccccc1)CCCCN1CC2CC1CN2Cc1ccccc1 (single isomer, unassigned) [Compound 16] | 7.3 (≈ 9.96 µM) | – | – | – | 0.6 (≈ 0.819 µM) | – | 1.5 (≈ 2.05 µM) |
| COc1nc2ccc(Br)cc2cc1C(c1ccccc1)C(O)(CCCCNC1CC2CCC1C2)c1ccc2ccccc2c1 (single isomer, unassigned) [Compound 38] | – | – | – | – | 2.1 (≈ 3.23 µM) | 10.3 (≈ 15.9 µM) | 2.6 (≈ 4 µM) |
| COc1nc2ccc(Br)cc2cc1C(c1ccccc1)C(O)(CCCCN1CC2CC1CN2Cc1ccccc1)c1ccc2ccccc2c1 (centres unmarked) [Compound 22] | 9.2 (≈ 12.7 µM) | 2.9 (≈ 3.99 µM) | – | – | 0.6 (≈ 0.826 µM) | – | – |
| COc1nc2ccc(Br)cc2cc1C(c1ccccc1)C(O)(CCCCN1CCC1)c1ccccc1 (single isomer, unassigned) [Compound 41] | 1.7 (≈ 3.12 µM) | 1.7 (≈ 3.12 µM) | – | – | 1.7 (≈ 3.12 µM) | – | – |
| COc1nc2ccc(Br)cc2cc1C(c1ccccc1)C(O)(CCCCN1CC2CC1CN2Cc1ccccc1)CCc1ccccc1 (single isomer, unassigned) [Compound 13] | 2.2 (≈ 3.12 µM) | 2.5 (≈ 3.55 µM) | – | 5.6 (≈ 7.95 µM) | – | – | – |
| COc1nc2ccc(Br)cc2cc1C(c1ccccc1)C(O)(CCCCN(C)CCc1ccccn1)c1ccccc1 (centres unmarked) [Compound 7] | 2.0 (≈ 3.2 µM) | 2.0 (≈ 3.2 µM) | – | 2.0 (≈ 3.2 µM) | – | – | – |
| COc1nc2ccc(Br)cc2cc1C(c1ccccc1)C(O)(CCCCN1CCCN(C)CC1)c1ccc2ccccc2c1 (centres unmarked) [Compound 35c] | 2.1 (≈ 3.22 µM) | 0.4 (≈ 0.613 µM) | – | 1.5 (≈ 2.3 µM) | – | – | – |
| COc1nc2ccc(Br)cc2cc1C(c1ccccc1)C(O)(CCCCN1CC2CC1CN2Cc1ccccc1)c1ccc2ccccc2c1 (single isomer, unassigned) [Compound 21] | 2.3 (≈ 3.16 µM) | 0.6 (≈ 0.826 µM) | – | 5.8 (≈ 7.98 µM) | – | – | – |
| COc1nc2ccc(Br)cc2cc1C(c1ccccc1)C(O)(CCCCN(C)CCc1ccccn1)c1ccccc1 (centres unmarked) [Compound 8] | 2.0 (≈ 3.2 µM) | 2.2 (≈ 3.52 µM) | – | 2.0 (≈ 3.2 µM) | – | – | – |
| COc1nc2ccc(Br)cc2cc1C(c1ccccc1)C(O)(CCCCN1CC2CC1CN2CC(C)C)c1ccc2ccccc2c1 (single isomer, unassigned) [Compound 53] | – | – | – | – | 1.6 (≈ 2.31 µM) | 2.2 (≈ 3.18 µM) | 0.1 (≈ 0.144 µM) |
| COc1nc2ccccc2cc1C(c1ccccc1)C(O)(CCCCN1CC2CC1CN2)c1ccc2ccccc2c1 (single isomer, unassigned) [Compound 18] | – | – | – | – | 1.8 (≈ 3.23 µM) | 1.8 (≈ 3.23 µM) | 1.8 (≈ 3.23 µM) |
| COc1nc2ccc(Br)cc2cc1C(c1ccccc1)C(O)(CCCCN1CCC(N2CCCCC2)CC1)c1ccc2ccccc2c1 (single isomer, unassigned) [Compound 29] | 5.0 (≈ 7.07 µM) | 0.8 (≈ 1.13 µM) | 177 | 2.2 (≈ 3.11 µM) | – | – | – |
